According to PubChem BioAssay (NCI):
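Test compounds were applied to cells in 96-well plates for 48 hours at 5 doses. Here, GI50 denotes the concentration required for 50% inhibition of growth. TGI marks complete inhibition of growth.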

What was measured:
Experiment in all cases: NCI tumour cell line growth inhibition, 48 h
[1] = test system: SK-OV-3 ovarian
[2] = test system: HS 578T breast
[3] = test system: COLO 205 colon
[4] = test system: A549 NSCLC
[5] = test system: KM12 colon
[6] = test system: DU-145 prostate
[7] = test system: SK-MEL-5 melanoma
[8] = test system: UO-31 renal
[9] = test system: SK-MEL-2 melanoma
[10] = test system: RPMI-8226 leukemia
[11] = test system: SN12C renal
[12] = test system: PC-3 prostate
[13] = test system: HCT-116 colon
[14] = test system: SF-268 CNS
[15] = test system: HOP-62 NSCLC
[16] = test system: MCF7 breast
[17] = test system: 786-0 renal
[18] = test system: SK-MEL-28 melanoma
[19] = test system: SF-539 CNS
[20] = test system: MDA-MB-231 breast
[21] = test system: MDA-MB-435
[22] = test system: IGROV1 ovarian
[23] = test system: NCI/ADR-RES ovarian
[24] = test system: TK-10 renal
[25] = test system: U251 CNS
[26] = test system: T-47D breast
[27] = test system: HL-60(TB) leukemia
[28] = test system: HOP-92 NSCLC
[29] = test system: M14 melanoma
[30] = test system: OVCAR-8 ovarian
[31] = test system: SF-295 CNS
[32] = test system: LOX IMVI melanoma
[33] = test system: HCT-15 colon
[34] = test system: OVCAR-5 ovarian
[35] = test system: SNB-75 CNS
[36] = test system: HCC-2998 colon
[37] = test system: BT-549 breast
[38] = test system: RXF 393 renal
[39] = test system: MALME-3M melanoma
[40] = test system: A498 renal
[41] = test system: SNB-19 CNS
[42] = test system: NCI-H23 lung
[43] = test system: HT29 colon
[44] = test system: CAKI-1 renal
[45] = test system: EKVX NSCLC
[46] = test system: OVCAR-4 ovarian
[47] = test system: ACHN renal
[48] = test system: CCRF-CEM leukemia
[49] = test system: UACC-62 melanoma
[50] = test system: SW-620 colon
[51] = test system: NCI-H226 lung
[52] = test system: NCI-H522 lung
[53] = test system: NCI-H460 lung
[54] = test system: SR leukemia
[55] = test system: OVCAR-3 ovarian
[56] = test system: K-562 leukemia
[57] = test system: MOLT-4 leukemia
[58] = test system: UACC-257 melanoma

O=C(Nc1cccc(Cl)c1)Nc1nccs1
GI50 [1]: 20.8 µM | TGI [1]: 63.9 µM | GI50 [2]: 15.3 µM | TGI [2]: 43.6 µM | GI50 [3]: 16 µM | TGI [3]: 32.1 µM | GI50 [4]: 26.5 µM | TGI [4]: > 100 µM | GI50 [5]: 8.5 µM | TGI [5]: 37.5 µM | GI50 [6]: 24.1 µM | TGI [6]: 65.2 µM | GI50 [7]: 15.2 µM | TGI [7]: 30.6 µM | GI50 [8]: 17.7 µM | TGI [8]: 53.6 µM | GI50 [9]: 24.3 µM | TGI [9]: 52.1 µM | GI50 [10]: 26 µM | TGI [10]: 79.3 µM | GI50 [11]: 37.1 µM | TGI [11]: > 100 µM | GI50 [12]: 24.6 µM | TGI [12]: 94.8 µM | GI50 [13]: 26.8 µM | TGI [13]: > 100 µM | GI50 [14]: 30 µM | TGI [14]: > 100 µM | GI50 [15]: 25.3 µM | TGI [15]: > 100 µM | GI50 [16]: 7.97 µM | TGI [16]: > 100 µM | GI50 [17]: 26.6 µM | TGI [17]: 63 µM | GI50 [18]: 31.8 µM | TGI [18]: > 100 µM | GI50 [19]: 20.6 µM | TGI [19]: 61.6 µM | GI50 [20]: 18 µM | TGI [20]: 41.8 µM | GI50 [21]: 4 µM | TGI [21]: 27.2 µM | GI50 [22]: 16.4 µM | TGI [22]: 70.7 µM | GI50 [23]: 16.6 µM | TGI [23]: 58.9 µM | GI50 [24]: 25.8 µM | TGI [24]: 60 µM | GI50 [25]: 18.2 µM | TGI [25]: 50.7 µM | GI50 [26]: 12.7 µM | TGI [26]: 78 µM | GI50 [27]: 28.1 µM | TGI [27]: 89.2 µM | GI50 [28]: 23.2 µM | TGI [28]: 65 µM | GI50 [29]: 30.2 µM | TGI [29]: > 100 µM | GI50 [30]: 25.1 µM | TGI [30]: 84.8 µM | GI50 [31]: 15.8 µM | TGI [31]: 39.5 µM | GI50 [32]: 26.9 µM | TGI [32]: > 100 µM | GI50 [33]: 20.5 µM | TGI [33]: > 100 µM | GI50 [34]: 34.8 µM | TGI [34]: > 100 µM | GI50 [35]: 20 µM | TGI [35]: 56.1 µM | GI50 [36]: 21.3 µM | TGI [36]: 51.2 µM | GI50 [37]: 31.6 µM | TGI [37]: > 100 µM | GI50 [38]: 22.6 µM | TGI [38]: 49.4 µM | GI50 [39]: 22.7 µM | TGI [39]: 64.7 µM | GI50 [40]: 12.8 µM | TGI [40]: 47.7 µM | GI50 [41]: 36.6 µM | TGI [41]: > 100 µM | GI50 [42]: 19.7 µM | TGI [42]: 60.5 µM | GI50 [43]: 19.7 µM | TGI [43]: 46.6 µM | GI50 [44]: 15.6 µM | TGI [44]: 43.5 µM | GI50 [45]: 19.8 µM | TGI [45]: 69.2 µM | GI50 [46]: 27.5 µM | TGI [46]: > 100 µM | GI50 [47]: 30.5 µM | TGI [47]: > 100 µM | GI50 [48]: 27 µM | TGI [48]: > 100 µM | GI50 [49]: 20.4 µM | TGI [49]: 57.4 µM | GI50 [50]: 26.6 µM | TGI [50]: > 100 µM | GI50 [51]: 38.7 µM | TGI [51]: > 100 µM | GI50 [52]: 13.8 µM | TGI [52]: 39.9 µM | GI50 [53]: 17.1 µM | TGI [53]: 42.4 µM | GI50 [54]: 13.6 µM | TGI [54]: 46.7 µM | GI50 [55]: 20.2 µM | TGI [55]: 53.6 µM | GI50 [56]: 20.3 µM | TGI [56]: > 100 µM | GI50 [57]: 21.4 µM | TGI [57]: 82 µM | GI50 [58]: 22.4 µM | TGI [58]: 61.8 µM
